Results reported in patent US20040024024A1, “Aromatic sulfone hydroxamates and their use as protease inhibitors” (priority 2001, published 2004).
“And” between values parts separate entries of the source, which are not always exact repeats. Identical values can stand only once. Counter-ions that a name gives are not always drawn.

Assays:
Assay type in all cases: biochemical
Human recombinant MMP-13 = target: T1, Human recombinant MMP-13 (Homo sapiens, UniProt P45452); assay: In vitro MMP inhibition, IC50 determination (fluorogenic substrate I)
T1 construct: made in house; host or cells: baculovirus / insect cells
In short: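 Fluorescence at 415 nm (excitation 328 nm) reports Gly-Leu cleavage of 4 μM quenched methoxycoumarin peptide substrate I. Human recombinant MMP-13, activated by trypsin or APMA, was incubated at room temperature with varied inhibitor concentrations in pH 7.5 Tris/NaCl/CaCl2 buffer; IC50 derived from reduced fluorescence.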

Human recombinant MMP-9 = target: T2, Human recombinant MMP-9 (Homo sapiens, UniProt P14780); assay: In vitro MMP inhibition, Ki determination (fluorogenic substrate II)
T2 construct: made in house; host or cells: MMP-9-transfected HT1080 cells (spent media)
T2 sequence (P14780 107-707 limits assumed): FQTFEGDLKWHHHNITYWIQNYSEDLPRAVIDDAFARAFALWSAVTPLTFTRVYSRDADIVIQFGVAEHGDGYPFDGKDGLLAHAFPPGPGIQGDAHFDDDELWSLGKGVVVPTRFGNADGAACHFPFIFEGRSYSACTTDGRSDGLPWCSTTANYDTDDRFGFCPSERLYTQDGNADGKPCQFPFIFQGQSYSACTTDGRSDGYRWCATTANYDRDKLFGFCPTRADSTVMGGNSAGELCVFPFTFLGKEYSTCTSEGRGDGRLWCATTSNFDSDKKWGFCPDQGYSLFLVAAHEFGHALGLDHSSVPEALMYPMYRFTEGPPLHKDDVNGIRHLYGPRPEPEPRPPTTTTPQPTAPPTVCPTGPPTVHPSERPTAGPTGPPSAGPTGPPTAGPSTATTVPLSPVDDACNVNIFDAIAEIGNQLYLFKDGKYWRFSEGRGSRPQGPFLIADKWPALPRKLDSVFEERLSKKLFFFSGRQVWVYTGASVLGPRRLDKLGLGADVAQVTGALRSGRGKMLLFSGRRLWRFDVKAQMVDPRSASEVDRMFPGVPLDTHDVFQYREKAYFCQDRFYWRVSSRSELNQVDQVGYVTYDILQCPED
Protocol: (§1) Several hydroxamates and salts thereof were analyzed in in vitro assays to determine their ability to inhibit the MMP cleavage of peptide substrates. Inhibition (Ki) and IC50 constants were calculated from the assayed hydroxamate-MMP interactions.
(§2) Human recombinant MMP-1, MMP-2, MMP-9, MMP-13, and MMP-14 were used in this assay. All enzymes were prepared in Assignee's laboratories following usual laboratory procedures. Protocols for the preparation and use of these enzymes are available in the scientific literature. See, e.g., Enzyme Nomenclature (Academic Press, San Diego, Calif., 1992) (and the citations therein). See also, Frije et al., J. Biol. Chem., 26(24), 16766-73 (1994).
The MMP-9 proenzyme was purified by gelatin Sepharose chromatography from spent media of MMP-9-transfected HT1080 cells provided by Dr. Howard Welgus of Washington University (St. Louis, Mo.).
(§3) All MMPs were activated using 4-aminophenylmercuric acetate (“APMA”, Sigma Chemical, St. Louis, Mo.) or trypsin. MMP-9 also was activated using human recombinant MMP-3 (purified in Assignee's laboratory following standard cloning and purification techniques).
(§4) Two fluorogenic, methoxycoumarin-containing polypeptide substrates were used in the MMP inhibition assays:
(§5) MCA-ArgProLeuGlyLeuDpaAlaArgGluArgNH2 (II)
(§6) Here, “Dpa” is 3-(2,4-dinitrophenyl)-L-2,3-diaminopropionyl group, and “MCA” is 7-methoxycoumarin-4-yl acetyl. Substrate (I) was purchased from Baychem (Redwood City, Calif.), and substrate II was prepared Assignee's laboratory. Substrate I was used in the IC50 determination assays, while substrate II was used in the Ki determination assays. In the absence of MMP inhibitory activity, either substrate is cleaved at the Gly-Leu peptide bond. This cleavage separates the highly fluorogenic peptide from the 2,4-dinitrophenyl quencher, thus resulting in increase of fluorescent intensity.
(§7) The stock solutions of the assayed hydroxamates (or salts thereof) were prepared in 1% dimethyl sulfoxide (DMSO). These stock solutions were diluted in Buffer A (100 mM Tris-HCl, 100 mM NaCl, 10 mM CaCl2, 0.05% polyoxyethylene 23 lauryl ether, pH 7.5) to obtain solutions with different hydroxamate concentrations, i.e., assay solutions with different concentrations of the assayed MMP inhibitory compound. The experiment controls contained the same amount of Buffer A/DMSO as the assayed sample, but contained no hydroxamate (or salt thereof).
(§8) The assays from which the Ki determinations were made were performed as follows. The assayed hydroxamate samples were incubated in separate wells of untreated white polystyrene plates (Nunc Nalgene International, Rochester, N.Y.), and analyzed on a Tecan SpectraFlour Plus plate reader. The excitation wavelength was 330 nm, and the emission wavelength—420 nm. All samples (assayed hydroxamates and controls) were incubated in separate plate wells at room temperature for 1 hr in the presence of 4 μM of MMP substrate (II). In the absence of MMP inhibitory activity, substrate II was cleaved at the Gly-Leu bond resulting in an increase of relative fluorescence. Inhibition was observed as a reduced rate of this increase in relative fluorescence. The various hydroxamates were analyzed using a single low enzyme concentration with a single substrate concentration fixed at or below the Km. This protocol is a modification of method by Knight et al., FEBS Lett., 296(3), 263-266 (1992). Apparent inhibitory constants were determined by non-linear regression of reaction velocity as a function of inhibitor and enzyme concentration using Morrison's equation, as described by Kuzmic, Anal. Biochem. 286, 45-50 (2000). Modifications were made in the non-linear regression method to allow a common control reaction rate and effective enzyme concentration to be shared between all dose-response relationships on a given assay plate. […]

Human recombinant MMP-1 = target: T3, Human recombinant MMP-1 (Homo sapiens, UniProt P03956); assay: as above
T3 construct: made in house; host or cells: MMP-1-transfected HT-1080 cells (spent media)
T3 sequence (P03956 100-469): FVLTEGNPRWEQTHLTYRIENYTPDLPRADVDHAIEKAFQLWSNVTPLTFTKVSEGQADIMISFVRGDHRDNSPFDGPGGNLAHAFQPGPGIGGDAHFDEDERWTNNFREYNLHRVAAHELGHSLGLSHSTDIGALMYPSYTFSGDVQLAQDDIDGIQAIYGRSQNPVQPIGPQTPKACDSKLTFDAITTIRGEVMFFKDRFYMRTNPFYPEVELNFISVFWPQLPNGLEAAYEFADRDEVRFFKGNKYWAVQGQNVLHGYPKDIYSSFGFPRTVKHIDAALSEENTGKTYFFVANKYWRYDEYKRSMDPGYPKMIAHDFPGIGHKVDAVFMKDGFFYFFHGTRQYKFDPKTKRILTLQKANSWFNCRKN
Protocol: as §1, §2
The MMP-1 proenzyme was purified from the spent media of MMP-1-transfected HT-1080 cells provided by Dr. Harold Welgus of Washington University (St. Louis, Mo.). The protein was purified on a zinc chelating column.
as §3, §4, §5, §6, §7, §8

[1] = substrate (I) 4 μM, room temperature, values not in parenthesis
[2] = substrate (II) 4 μM, 1 hr room temperature, apparent Ki, values in parenthesis

| IC50 (Human recombinant MMP-13; value outside parenthesis) [nM] | Ki (Human recombinant MMP-9; value in parenthesis) [nM] | Ki (Human recombinant MMP-1; value in parenthesis) [nM] | IC50 (Human recombinant MMP-13; value outside parentheses) [nM] | Ki (Human recombinant MMP-9; value in parentheses) [nM] | Ki (Human recombinant MMP-1; value in parentheses) [nM] | Compound | other results |
| --- | --- | --- | --- | --- | --- | --- | --- |
| 0.2 | 247 | 3940 |  |  |  | O=C(CCCOc1ccc(S(=O)(=O)C2(C(=O)NO)CCOCC2)cc1)Nc1ccc(OC(F)(F)F)cc1 [Example 228] |  |
| 1.8 | 1450 | > 10000 |  |  |  | O=C(NO)C1(S(=O)(=O)c2ccc(OCCCc3cccc(Cc4ccccc4)c3)cc2)CCOCC1 [Example 98] |  |
| 1.4 | 2130 | > 10000 |  |  |  | O=C(NO)C1(S(=O)(=O)c2ccc(OCCc3cccc(-c4ccc(F)cc4)c3)cc2)CCOCC1 [Example 123] |  |
| 0.3 | 40.5 | 1850 |  |  |  | O=C(CCCOc1ccc(S(=O)(=O)C2(C(=O)NO)CCOCC2)cc1)Nc1cccc(OC(F)(F)F)c1 [Example 181] |  |
|  |  |  |  |  |  | COCCN1CCC(C(=O)NO)(S(=O)(=O)c2ccc(OCCCc3cc(-c4ccc(F)cc4F)cs3)cc2)CC1 [Example 47, 4-[(4-{3-[4-(2,4-difluorophenyl)thien-2-l]propoxy}phenyl)sulfonyl]-N-hydroxy-1-(2-methoxyethyl)piperidine-4-carboxamide Hydrochloride] | IC50 (Human recombinant MMP-13; [1]): 0.2 nM; Ki (Human recombinant MMP-9; [2]): 119 nM and 309 nM; Ki (Human recombinant MMP-1; [2]): > 10000 nM |
|  |  |  | 0.3 | 4.22 | > 10000 | CCN1CCC(C(=O)NO)(S(=O)(=O)c2ccc(OCCCSc3nc4ccccc4s3)cc2)CC1 [Example 591] |  |
| 3.1 | 427 | 8790 |  |  |  | O=C(NO)C1(S(=O)(=O)c2ccc(OCCCc3cccc(-c4ccccn4)c3)cc2)CCOCC1 [Example 148] |  |
| 7.5 | 310 | > 10000 |  |  |  | O=C1Nc2ccc(-c3noc(CCCOc4ccc(S(=O)(=O)C5(C(=O)NO)CCN(C6CC6)CC5)cc4)n3)cc21 [Example 142] |  |
| 20 | 2720 | > 10000 |  |  |  | Cc1ccccc1-c1cccc(CCCOc2ccc(S(=O)(=O)C3(C(=O)NO)CCOCC3)cc2)c1 [Example 164] |  |
|  |  |  | 0.4 | 1100 | > 10000 | O=C(NO)C1(S(=O)(=O)c2ccc(OCCCc3cccc(-c4ccc([N+](=O)[O-])cc4)c3)cc2)CCOCC1 [Example 626] |  |
|  |  |  | 20 | 4830 | > 10000 | C=Cc1ccc(-c2cccc(CCCOc3ccc(S(=O)(=O)C4(C(=O)NO)CCOCC4)cc3)c2)cc1 [Example 635] |  |
|  |  |  |  |  |  | O=C(NO)C1(S(=O)(=O)c2ccc(OCCCc3nc(-c4ccc(OC(F)(F)F)cc4)no3)cc2)CCN(C2CC2)CC1 [Example 51, 1-cyclopropyl-N-hydroxy-4-{[4-(3-{3-[4-(trifluoromethoxy)phenyl]-1,2,4-oxadiazol-5-yl}propoxy)phenyl]sulfonyl}piperidine-4-carboxamide Hydrochloride] | IC50 (Human recombinant MMP-13; [1]): 0.2 nM; Ki (Human recombinant MMP-9; [2]): 98.7 nM; Ki (Human recombinant MMP-1; [2]): 5160 nM |
|  |  |  | 1.6 | 716 | > 10000 | O=C(NO)C1(S(=O)(=O)c2ccc(OCCCc3cccc(-c4ccsc4)c3)cc2)CCOCC1 [Example 632] |  |
| 0.4 | 1390 | > 10000 |  |  |  | O=C(NO)C1(S(=O)(=O)c2ccc(OCCCc3cccc(-c4ccc(F)cc4)c3)cc2)CCN(C2CC2)CC1 [Example 139] |  |
| 0.6 | 125 | > 10000 |  |  |  | O=C(NO)C1(S(=O)(=O)c2ccc(OCCCc3cccc(-c4cccnc4)c3)cc2)CCOCC1 [Example 150] |  |
|  |  |  | 2.9 | 578 | > 10000 | O=C(NO)C1(S(=O)(=O)c2ccc(OCCCc3nc(-c4cccnc4)no3)cc2)CCOCC1 [Example 578] |  |
| 2.7 | 788 | > 10000 |  |  |  | CC(C)C(=O)c1cccc(CCCOc2ccc(S(=O)(=O)C3(C(=O)NO)CCOCC3)cc2)c1 [Example 95] |  |
|  |  |  | 0.3 | 443 | > 10000 | N#Cc1ccc(-c2cccc(CCCOc3ccc(S(=O)(=O)C4(C(=O)NO)CCOCC4)cc3)c2)cc1 [Example 624] |  |
|  |  |  | 78.6 | 1300 | > 10000 | O=C(NO)C1(S(=O)(=O)c2ccc(OCCCc3cccc(-c4ccc5ccccc5c4)c3)cc2)CCOCC1 [Example 629] |  |
| 0.4 | 59.5 | 5600 |  |  |  | O=C(CCCc1ccc(S(=O)(=O)C2(C(=O)NO)CCOCC2)cc1)c1cccc(-c2ccccc2)c1 [Example 219] |  |
| 2.5 | 2500 | > 10000 |  |  |  | O=C(NO)C1(S(=O)(=O)c2ccc(OCCCc3cccc(-c4ccccc4F)c3)cc2)CCOCC1 [Example 163] |  |
| 0.9 | 1980 | > 10000 |  |  |  | O=C(NO)C1(S(=O)(=O)c2ccc(OCCc3cccc(-c4ccccc4F)c3)cc2)CCOCC1 [Example 115] |  |
|  |  |  | 0.7 | 83 | > 10000 | O=C(NO)C1(S(=O)(=O)c2ccc(OCCCc3cccc(-n4ccnc4)c3)cc2)CCOCC1 [Example 574] |  |
|  |  |  | 400 | 8770 | > 10000 | O=C(NO)C1(S(=O)(=O)c2ccc(OCCCc3cccc(-c4cccc5ccccc45)c3)cc2)CCOCC1 [Example 638] |  |
|  |  |  | 1.1 | 132 | > 10000 | O=C(COc1ccc(S(=O)(=O)C2(C(=O)NO)CCOCC2)cc1)c1cccc(-c2ccccc2)c1 [Example 563] |  |
|  |  |  | 16.3 | 1300 | > 10000 | O=C(NO)C1(S(=O)(=O)c2ccc(OCCCc3cccc(-c4coc5ccccc45)c3)cc2)CCOCC1 [Example 634] |  |
| 1.4 | 1390 | > 10000 |  |  |  | COCCN1CCC(C(=O)NO)(S(=O)(=O)c2ccc(OCCCc3nc(-c4ccc(CC(C)C)cc4)no3)cc2)CC1 [Example 175] |  |
|  |  |  |  |  |  | O=C(NO)C1(S(=O)(=O)c2ccc(OCCCn3nnc(-c4ccc(OC(F)(F)F)cc4)n3)cc2)CCN(CC2CC2)CC1 [Example 53] | IC50 (Human recombinant MMP-13; [1]): 1 nM; Ki (Human recombinant MMP-9; [2]): 2900 nM; Ki (Human recombinant MMP-1; [2]): > 10000 nM |
|  |  |  |  |  |  | CCN1CCC(C(=O)NO)(S(=O)(=O)c2ccc(OCCCc3nc(-c4ccc(OC(F)(F)F)cc4)no3)cc2)CC1 [Example 41, 1-ethyl-N-hydroxy 4-{[4-(3-{3-[4-(trifluoromethoxy)phenyl]-1,2,4-oxadiazol-5-yl}propoxy)phenyl]sulfonyl}piperidine-4-carboxamide Hydrochloride] | IC50 (Human recombinant MMP-13; [1]): 2 nM; Ki (Human recombinant MMP-9; [2]): 1470 nM; Ki (Human recombinant MMP-1; [2]): > 10000 nM |

| Compound | IC50 (Human recombinant MMP-13; value outside parenthesis) [nM] | Ki (Human recombinant MMP-9; value in parenthesis) [nM] | Ki (Human recombinant MMP-1; value in parenthesis) [nM] | IC50 (Human recombinant MMP-13; value outside parentheses) [nM] | Ki (Human recombinant MMP-9; value in parentheses) [nM] | Ki (Human recombinant MMP-1; value in parentheses) [nM] | other results |
| --- | --- | --- | --- | --- | --- | --- | --- |
| COCCN1CCC(C(=O)NO)(S(=O)(=O)c2ccc(OCCCc3nc(-c4ccc(OC(F)(F)F)cc4)no3)cc2)CC1 [Example 190] | 0.5 | 669 | > 10000 |  |  |  |  |
